# Source: patent US8106055B2, “Substituted amide compounds” (Gruenenthal GmbH, priority 2007, dated 2012)
# Tests used:
# human μ opiate receptor = target: T1, human μ opiate receptor (Homo sapiens, UniProt P35372); experiment: Affinity for the human μ opiate receptor ([3H]-naloxone displacement, CHO-K1 receptor membrane preparation, SPA); assay type: binding; conditions: test concentration of 1 μM
# T1 construct: purchased PerkinElmer Life Sciences, Zaventem, Belgium RB-HOM; host or cells: CHO-K1 cells (membrane preparation)
# Outline: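 Test compounds, 1 nmol/l [3H]-naloxone and CHO-K1 membranes bearing the human μ opiate receptor are combined with WGA-SPA beads. After 90 minutes at room temperature, plates are centrifuged and radioactivity counted. Specific-binding inhibition at 1 μmol/l is given in percent.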
# [1] = target: T2, serotonin (5-HT) reuptake (Rattus norvegicus, UniProt P31652); experiment: Inhibition of serotonin (5HT) reuptake in synaptosomes from rat brain; assay type: biochemical; conditions: test concentration of 10 μM
# T2 construct: synaptosomes are freshly isolated from areas of the rat brain; from tissue; host or cells: rat brain synaptosomes (P2 fraction)
# Outline: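 Compounds screened at 10 μM and reported as percent inhibition of serotonin uptake. Uptake measured in a freshly prepared P2 synaptosomal fraction from rat brain.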
# T2 sequence (P31652 whole entry): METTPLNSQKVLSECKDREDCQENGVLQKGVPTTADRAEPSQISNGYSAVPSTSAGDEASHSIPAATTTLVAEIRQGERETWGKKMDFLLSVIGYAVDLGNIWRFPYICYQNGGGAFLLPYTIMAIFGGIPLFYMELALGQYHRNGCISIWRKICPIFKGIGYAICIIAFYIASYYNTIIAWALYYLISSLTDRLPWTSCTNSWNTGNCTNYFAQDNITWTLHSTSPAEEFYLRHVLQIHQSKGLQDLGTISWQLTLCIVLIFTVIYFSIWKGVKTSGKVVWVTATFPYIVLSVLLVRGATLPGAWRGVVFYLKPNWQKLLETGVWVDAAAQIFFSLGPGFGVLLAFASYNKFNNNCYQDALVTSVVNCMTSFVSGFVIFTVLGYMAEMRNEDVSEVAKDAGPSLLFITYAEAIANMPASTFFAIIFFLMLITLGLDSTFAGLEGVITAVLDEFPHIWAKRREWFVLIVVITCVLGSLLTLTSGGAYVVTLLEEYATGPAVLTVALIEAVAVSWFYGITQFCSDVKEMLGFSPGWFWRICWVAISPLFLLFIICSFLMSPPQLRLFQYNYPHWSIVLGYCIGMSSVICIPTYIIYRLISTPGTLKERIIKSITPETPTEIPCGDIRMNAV
# T1 sequence (P35372 whole entry): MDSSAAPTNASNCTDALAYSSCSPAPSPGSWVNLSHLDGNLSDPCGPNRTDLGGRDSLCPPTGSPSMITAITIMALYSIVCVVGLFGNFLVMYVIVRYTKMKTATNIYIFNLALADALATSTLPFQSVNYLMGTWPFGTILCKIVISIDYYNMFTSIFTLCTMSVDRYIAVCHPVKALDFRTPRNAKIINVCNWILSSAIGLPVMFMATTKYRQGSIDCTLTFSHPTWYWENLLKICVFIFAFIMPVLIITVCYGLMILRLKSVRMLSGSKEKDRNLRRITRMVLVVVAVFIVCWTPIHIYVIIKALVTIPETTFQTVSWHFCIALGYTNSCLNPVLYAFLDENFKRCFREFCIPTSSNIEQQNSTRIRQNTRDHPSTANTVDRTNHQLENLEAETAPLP
SMILES,"μ (binding on the μ opioid receptor, % inhibition) (human μ opiate receptor) [%]","5-HT (inhibition of reuptake of serotonin, % inhibition) [1] [%]"
CN(C)C(c1ccc(F)cc1)C1CCC(CCNC(=O)COCCN(C)S(=O)(=O)c2cccc(C(F)(F)F)c2)CC1 (centres unmarked) [Example 368],61,95
CN(C)C(c1ccc(F)cc1)C1CCC(NC(=O)COCCN(C)S(=O)(=O)c2cccc(C(F)(F)F)c2)CC1 (centres unmarked) [Example 438],51,84
CN(C)C(c1ccc(Cl)cc1)C1CCC(CCNC(=O)COCC2CCCN(S(=O)(=O)c3ccccc3)C2)CC1 (centres unmarked) [Example 425],48,97
COc1ccc(S(=O)(=O)N2CCC(OCC(=O)NCCC3CCC(C(c4ccc(F)cc4)N(C)C)CC3)C2)cc1OC (centres unmarked) [Example 430],56,92
COc1ccc(S(=O)(=O)N(C)CCOCC(=O)NC2CCC(C(c3cccc(F)c3)N(C)C)CC2)cc1OC (centres unmarked) [Example 401],49,99
Cc1cc(C)c(S(=O)(=O)N2CCC(OCC(=O)NCC3CCC(C(c4ccc(F)cc4)N(C)C)CC3)C2)c(C)c1 (centres unmarked) [Example 432],56,82
CN(C)C(c1ccc(Cl)cc1)C1CCC(CNC(=O)COC2CCN(S(=O)(=O)c3ccc(Cl)cc3)C2)CC1 (centres unmarked) [Example 384],55,87
COc1ccc(S(=O)(=O)N2Cc3ccccc3CC2COCC(=O)NCC2CCC(C(CCc3ccccc3)N(C)C)CC2)cc1 (centres unmarked) [Example 373],62,85
COc1cc(C)c(S(=O)(=O)N(C)CCOCC(=O)NCCC2CCC(C(c3ccc(Cl)cc3)N(C)C)CC2)c(C)c1 (centres unmarked) [Example 378],58,83
COc1cc(C)c(S(=O)(=O)N2CCC(OCC(=O)NCC3CCC(C(c4ccc(Cl)cc4)N(C)C)CC3)C2)c(C)c1 (centres unmarked) [Example 403],52,93
COc1ccc(S(=O)(=O)N2CCCCC2COCC(=O)NCC2CCC(C(c3ccc(F)cc3)N(C)C)CC2)c(OC)c1 (centres unmarked) [Example 405],52,89
COc1cc(C)c(S(=O)(=O)N2CCCC(OCC(=O)NCC3CCC(C(c4ccc(Cl)cc4)N(C)C)CC3)C2)c(C)c1C (centres unmarked) [Example 449],46,73
CN(C)C(c1ccc(Cl)cc1)C1CCC(CNC(=O)COC2CCN(S(=O)(=O)c3ccc(F)cc3)C2)CC1 (centres unmarked) [Example 394],56,93
CN(C)C(c1cccc(F)c1)C1CCC(CCNC(=O)COC2CCN(S(=O)(=O)c3ccccc3)C2)CC1 (centres unmarked) [Example 376],62,88
CN(C)C(c1ccc(F)cc1)C1CCC(NC(=O)COCCN(C)S(=O)(=O)c2ccc(Cl)cc2)CC1 (centres unmarked) [Example 406],51,93
CN(C)C(c1ccc(F)cc1)C1CCC(NC(=O)COCCN(C)S(=O)(=O)c2c(Cl)cc(Cl)cc2Cl)CC1 (centres unmarked) [Example 382],60,96
CN(C)C(c1ccc(F)cc1)C1CCC(CNC(=O)COCC2CCCN(S(=O)(=O)c3ccccc3)C2)CC1 (centres unmarked) [Example 424],39,96
CN(C)C(c1ccc(F)cc1)C1CCC(NC(=O)COC2CCN(S(=O)(=O)c3ccc(Cl)cc3)C2)CC1 (centres unmarked) [Example 370],59,83
COc1cc(C)c(S(=O)(=O)N2CCC(OCC(=O)NCC3CCC(C(c4ccc(F)cc4)N(C)C)CC3)C2)c(C)c1C (centres unmarked) [Example 427],50,94
COc1cc(C)c(S(=O)(=O)N2CCC(OCC(=O)NCC3CCC(C(c4ccc(Cl)cc4)N(C)C)CC3)C2)c(C)c1C (centres unmarked) [Example 428],49,88
CN(C)C(c1ccc(Cl)cc1)C1CCC(CCNC(=O)COCCN(Cc2ccccc2)S(=O)(=O)c2ccccc2)CC1 (centres unmarked) [Example 426],48,95
COc1cc(C)c(S(=O)(=O)N2CCC(OCC(=O)NCCC3CCC(C(c4ccc(Cl)cc4)N(C)C)CC3)C2)c(C)c1C (centres unmarked) [Example 412],50,95

SMILES,"μ (binding on the μ opioid receptor, % inhibition) (human μ opiate receptor) [%]","5-HT (inhibition of reuptake of serotonin, % inhibition) [1] [%]"
CN(C)C(c1ccc(Cl)cc1)C1CCC(CCNC(=O)COC2CCCCC2N(C)S(=O)(=O)c2ccc(Cl)c(Cl)c2)CC1 (centres unmarked) [Example 410],50,78
CCN(CCOCC(=O)NCCC1CCC(C(c2ccc(Cl)cc2)N(C)C)CC1)S(=O)(=O)c1c(C)cc(OC)c(C)c1C (centres unmarked) [Example 434],46,82
COc1cc(C)c(S(=O)(=O)N(CCOCC(=O)NCC2CCC(C(c3cccc(F)c3)N(C)C)CC2)Cc2ccccc2)c(C)c1 (centres unmarked) [Example 388],65,91
COc1cc(C)c(S(=O)(=O)N2CCC(CCOCC(=O)NCCC3CCC(C(c4cccc(F)c4)N(C)C)CC3)CC2)c(C)c1C (centres unmarked) [Example 397],67,93
COc1ccc(S(=O)(=O)N2CCCCC2CCOCC(=O)NCCC2CCC(C(c3ccc(Cl)cc3)N(C)C)CC2)cc1 (centres unmarked) [Example 383],59,94
CN(C)C(c1ccc(F)cc1)C1CCC(CNC(=O)COCCN(C)S(=O)(=O)c2c(Cl)cc(Cl)cc2Cl)CC1 (centres unmarked) [Example 404],53,96
CN(C)C(c1ccc(F)cc1)C1CCC(NC(=O)COC2CCCN(S(=O)(=O)c3ccccc3)C2)CC1 (centres unmarked) [Example 423],47,95
CN(C)C(c1ccc(F)cc1)C1CCC(CNC(=O)COCCN2CCN(S(=O)(=O)c3ccccc3)CC2)CC1 (centres unmarked) [Example 433],46,95
COc1cc(C)c(S(=O)(=O)N2CCN(CCOCC(=O)NCC3CCC(C(c4ccc(F)cc4)N(C)C)CC3)CC2)c(C)c1C (centres unmarked) [Example 366],55,96
CN(C)C(c1ccc(F)cc1)C1CCC(NC(=O)COC2CCN(S(=O)(=O)c3ccccc3)CC2)CC1 (centres unmarked) [Example 408],48,93
CN(C)C(CCc1ccccc1)C1CCC(CNC(=O)COCCN(C)S(=O)(=O)c2ccc(Cl)cc2)CC1 (centres unmarked) [Example 445],44,87
CN(C)C(c1ccc(F)cc1)C1CCC(NC(=O)COCCN(C)S(=O)(=O)c2c(Cl)cccc2Cl)CC1 (centres unmarked) [Example 363],59,73
COc1cc(C)c(S(=O)(=O)N2CCC(OCC(=O)NC3CCC(C(c4ccc(F)cc4)N(C)C)CC3)C2)c(C)c1 (centres unmarked) [Example 441],49,99
COc1cc(C)c(S(=O)(=O)N(CCOCC(=O)NC2CCC(C(c3cccc(F)c3)N(C)C)CC2)Cc2ccccc2)c(C)c1C (centres unmarked) [Example 419],53,76
CN(C)C(c1ccc(Cl)cc1)C1CCC(CCNC(=O)COC2CCN(S(=O)(=O)c3cccc(C(F)(F)F)c3)C2)CC1 (centres unmarked) [Example 431],45,93
CCN(CCOCC(=O)NCCC1CCC(C(c2ccc(F)cc2)N(C)C)CC1)S(=O)(=O)c1c(C)cc(OC)c(C)c1C (centres unmarked) [Example 413],55,96
COc1cc(C)c(S(=O)(=O)N2CCN(CCOCC(=O)NCC3CCC(C(c4ccc(Cl)cc4)N(C)C)CC3)CC2)c(C)c1C (centres unmarked) [Example 429],54,95
COc1ccc(S(=O)(=O)N2Cc3ccccc3CC2COCC(=O)NCCC2CCC(C(c3ccc(F)cc3)N(C)C)CC2)cc1 (centres unmarked) [Example 389],58,93
CN(C)C(c1ccc(F)cc1)C1CCC(NC(=O)COC2CCN(S(=O)(=O)c3ccc(F)cc3)C2)CC1 (centres unmarked) [Example 381],54,79
CCN(CCOCC(=O)NC1CCC(C(c2ccc(F)cc2)N(C)C)CC1)S(=O)(=O)c1c(C)cc(OC)c(C)c1C (centres unmarked) [Example 396],60,90
CN(C)C(c1ccc(F)cc1)C1CCC(CNC(=O)COCCN(C)S(=O)(=O)c2cccc(C(F)(F)F)c2)CC1 (centres unmarked) [Example 390],55,90
